Several values for one entry are separate records, joined by “and”; a condition that tells them apart may be missing. Equal entries are not always repeated. Marks after values point to notes of the source that are not given here.
Assays:
[1] = tested on: mice; experiment: Electroconvulsive threshold test (MEST test); assay type: in vivo, mouse
[2] = tested on: mice; experiment: Formalin hind paw test; assay type: in vivo, mouse; conditions: dose 30 mg/kg i.p.; for reduction of the duration of the licking response, first (neurogenic) phase: 0–5 min after 5 % formalin; for antinociceptive effect (reduction of licking response), second (late) phase: 15–30 min after 5 % formalin
Experimental: (§1) Male CD-1 mice weighing 18–24 g were used in the in vivo experiment. The animals were kept at room temperature of 20 ± 2 °C under standard conditions (12:12 h light-dark cycle, standard pellet diet, tap water). All the experiments were performed between 8 a.m. and 3 p.m. For the experiments, the animals were selected in a random way and sacrificed by cervical dislocation immediately after the assay. The experimental protocol was approved by the Local Ethics Commission for Animal Experiments of the Jagiellonian University in Cracow, and all experiences were conducted in accordance with the 1996 NIH Guide for the Care and Use of Laboratory Animals.
(§2) The tested compounds 12 (N-[{4-(3,4-dichlorophenyl)-piperazin-1-yl}-methyl]-3-methylpyrrolidine-2,5-dione), 13 (N-[{4-(3-trifluoromethylphenyl)-piperazin-1-yl}-methyl]-3-methylpyrrolidine-2,5-dione), 15 (N-[{4-(3-methylphenyl)-piperazin-1-yl}-methyl]-3-methylpyrrolidine-2,5-dione), 23 (N-[{4-(3,4-dichlorophenyl)-piperazin-1-yl}-methyl]-pyrrolidine-2,5-dione), and 24 (N-[{4-(3-trifluoromethylphenyl)-piperazin-1-yl}-methyl]-pyrrolidine-2,5-dione) were synthesized at the Department of Medicinal Chemistry, Jagiellonian University Medical College in Cracow (Scheme 1). The synthesis of the investigated compounds was described earlier (Rybka et al. [2014]). The investigated compounds were suspended in a 0.5 % aqueous solution of methylcellulose (Loba Chemie, Germany). Lacosamide (Vimpat, UCB Pharma, Belgium), pilocarpine (Sigma-Aldrich, Germany), scopolamine butylbromide (Sigma-Aldrich, Germany), and formaldehyde (POCh, Poland) were dissolved in distilled water. Agents were administered intraperitoneally (i.p.) at a volume of 0.1 ml/10 g. Control animals were administered an equivalent volume of vehicle (0.5 % aqueous solution of methylcellulose) via the same route as the test compounds.
Antinociceptive activity in the formalin hind paw test was examined according to Laughlin et al. ([2002]). Twenty microliters of a 5 % formalin solution was injected intraplantarly (i.pl.) into the right hind paw of the mouse. […] Time (in seconds) spent on licking or biting the injected hind paw in selected intervals, 0–5 and 15–30 min, was measured in each experimental group and was an indicator of nociceptive behavior. In mice, intraplantarly injection of diluted formalin produces a biphasic nocifensive behavioral response (i.e., licking or biting the injected hind paw). The acute nociceptive phase lasts for the first 5 min, whereas the second inflammatory phase occurs between 15 and 30 min after formalin injection.

[3] = tested on: mice; experiment: Spontaneous locomotor activity (photoresistor actometers); assay type: in vivo, mouse
Experimental: as §1, §2
Locomotor activity was measured with photoresistor actometers (Ugo Basile, Italy) connected to a counter for the recording of light-beam interruptions. Mice were individually placed in plastic cages for 30 min habituation period, and then the number of light-beam crossings was counted for a 30-min session. The cages were cleaned up with 70 % ethanol after each mouse.

[4] = tested on: V. harveyi BB7; experiment: Vibrio harveyi mutagenicity assay, BB7 strain; conditions: 40 ng/ml; for Mutagenicity BB7 M.I. (mutagenic index): positive assay when M.I. ≥ 2
Experimental: (§3) Two V. harveyi strains were used in the experiments: wild-type BB7 and genetically modified BB7XM (the UV-hypersensitive strain bearing plasmid pAB91273), which were described previously by Czyż et al. ([2000]).
(§4) Mutagenicity assay was performed as described previously (Czyż et al. [2000]). All experiments were carried out in triplicate and the results were expressed as mutagenic index (M.I. = the number of revertant colonies induced in the tested sample/the number of spontaneous revertants in the negative control) (Gulluce et al. [2010]).

[5] = tested on: mice; experiment: Pilocarpine-induced seizure test; assay type: in vivo, mouse
Experimental: as §1, §2
The experimental procedure was originally described by Turski et al. ([1987]). Seizures were induced in mice by i.p. injection of pilocarpine at a dose of 400 mg/kg. Forty-five minutes before pilocarpine, animals were also pretreated with scopolamine butylbromide (1 mg/kg, i.p.) to reduce peripheral autonomic side effects and masticatory and stereotyped movements (Kowalczyk et al. [2014]). Direct observation was performed for 60 min to monitor the latency time to the onset of the limbic seizures, characterized by a subsequent development of behavioral symptoms, such as tremor, head bobbing, and myoclonic movements of the forelimbs progressing to recurrent myoclonic convulsions with rearing, salivation, falling, and status epilepticus (Łuszczki et al. [2008]; Turski [2000]).

[6] = tested on: V. harveyi BB7XM; experiment: Vibrio harveyi mutagenicity assay, BB7XM strain; conditions: 40 ng/ml; for Mutagenicity BB7XM M.I. (mutagenic index): positive assay when M.I. ≥ 2
Experimental: as §3, §4

[7] = tested on: mice; experiment: Hot plate test; assay type: in vivo, mouse; conditions: dose 30 mg/kg i.p.; for latency time to pain reaction: mean ± SEM, vehicle 27.51 ± 1.36 s, cutoff 60 s
Experimental: as §1, §2
In the hot plate test, the mice were i.p. pretreated either with the test compound or vehicle before placing the animal on the hot plate apparatus (Panlab/Harvard Apparatus, Spain). This apparatus has an electrically heated surface and is supplied with a temperature controller that maintains the temperature at 55–56 °C. The time to the first reaction (licking or jumping) of mice to a nociceptive stimulus was recorded. The cutoff time was established to 60 s to avoid paw tissue damage (Sałat et al. [2014]).

[8] = tested on: V. harveyi BB7; experiment: Vibrio harveyi antimutagenicity assay (vs NQNO), BB7 strain; assay type: cell-based; conditions: for inhibition of NQNO-induced mutagenicity in BB7 strain (in words): NQNO 40 ng/ml; for Antimutagenicity BB7 number of revertants Mean ± SD: test compound plus NQNO 40 ng/ml (NQNO line: mutagen only); for Antimutagenicity BB7 Inhib. (%) of mutagenicity: test compound plus NQNO 40 ng/ml, 25–40 % moderate, 40 % or more strong
Experimental: as §3
(§5) Antimutagenicity assay was performed according to previously described procedures (Czyż et al. [2002]; Pękala et al. [2013]). […] This was calculated as follows: Inhibition (%) = 100 − [(R1/R2) × 100], where R1 is the number of revertants per plate induced by test compound plus mutagen and R2 is the number of revertants in the plate containing only the mutagen (Słoczyńska et al. [2010]). No antimutagenic effect was considered when the inhibition was less than 25 %; a moderate effect for an inhibition value between 25 and 40 % and a strong antimutagenicity were recorded for inhibition higher than 40 % (Gulluce et al. [2010]).

[9] = tested on: V. harveyi BB7XM; experiment: Vibrio harveyi antimutagenicity assay (vs NQNO), BB7XM strain; assay type: cell-based; conditions: for Antimutagenicity BB7XM number of revertants Mean ± SD: test compound plus NQNO 40 ng/ml (NQNO line: mutagen only); for Antimutagenicity BB7XM Inhib. (%) of mutagenicity: test compound plus NQNO 40 ng/ml, 25–40 % moderate, 40 % or more strong
Experimental: as §3, §5

[10] = tested on: L-type calcium channel (dihydropyridine site); experiment: L-type Ca channel (dihydropyridine site) [3H]nitrendipine binding assay; conditions: rat cerebral cortex
[11] = dose 30 mg/kg i.p., 4 h before the test, value with 95 % confidence interval
[12] = dose 30 mg/kg i.p., 30-min session
[13] = dose 100 mg/kg i.p., 4 h before pilocarpine 400 mg/kg
[14] = dose 100 mg/kg i.p., 4 h before pilocarpine

Row | Compound | CS50 (mA) (CI) [1, 11] | reduction of the duration of the licking response, first (neurogenic) phase [2] [%] | antinociceptive effect (reduction of licking response), second (late) phase [2] [%] | influence on locomotor activity (number of crossings, in words) [3, 12] | Mutagenicity BB7 number of revertants Mean ± SD [4] | Mutagenicity BB7 M.I. (mutagenic index) [4] | Latency to status epilepticus (s) ± SEM [5, 13] [s] | Mutagenicity BB7XM number of revertants Mean ± SD [6] | Mutagenicity BB7XM M.I. (mutagenic index) [6] | latency time to pain reaction [7] [s] | inhibition of NQNO-induced mutagenicity in BB7 strain (in words) [8] | Antimutagenicity BB7 number of revertants Mean ± SD [8] | Antimutagenicity BB7 Inhib. (%) of mutagenicity [8] | Antimutagenicity BB7XM number of revertants Mean ± SD [9] | Antimutagenicity BB7XM Inhib. (%) of mutagenicity [9] | Anticonvulsant effect (%) (prolongation of latency time to seizures vs vehicle) [5, 14] | prolongation of latency time to pain reaction vs vehicle [7] [%] | also measured
1 | CC1CC(=O)N(CN2CCN(c3cccc(C(F)(F)F)c3)CC2)C1=O (stereo not shown) [Compound 13, N-[{4-(3-trifluoromethylphenyl)-piperazin-1-yl}-methyl]-3-methylpyrrolidine-2,5-dione] | 9.37 (5.47–16.07)* mA | 79 | 89 | significantly reduced the number of crossings | 22 ± 3 | 1.4 | 296.7 ± 9.63 | 20 ± 5 | 1.7 | 56.03 ± 1.75 | moderate inhibitors | 25 ± 4 | (35) % | 20 ± 4 | (16) % | – | – | –
2 | O=C1CCC(=O)N1CN1CCN(c2cccc(C(F)(F)F)c2)CC1 [Compound 24, N-[{4-(3-trifluoromethylphenyl)-piperazin-1-yl}-methyl]-pyrrolidine-2,5-dione] | 14.01 (9.05–21.70)*** mA | 62 | 94 | significantly reduced the number of crossings | 25 ± 4 | 1.6 | 346.7 ± 25.92 | 19 ± 1 | 1.6 | 47.23 ± 3.77 | weakly suppressed | 31 ± 5 | (18) % | 29 ± 3 | (0) % | 1.2 | 72 | increase of electroconvulsive threshold (ECT) vs vehicle ([1]; dose 10 mg/kg i.p., 4 h before the test): 68%; CS50 (mA) (CI) ([1]; dose 10 mg/kg i.p., 4 h before the test, value with 95 % confidence interval): 11.11 (8.12–15.20)*** mA; increase of electroconvulsive threshold (ECT) vs vehicle ([1]; dose 30 mg/kg i.p., 4 h before the test): 114%
3 | COC[C@@H](NC(C)=O)C(=O)NCc1ccccc1 [Lacosamide, reference compound] | – | 69 | 90 | significant decrease of locomotor activity | – | – | – | – | – | – | – | – | – | – | – | – | – | CS50 (mA) (CI) ([1]; dose 10 mg/kg i.p., 30 min before the test, 10 mg/kg): >25 mA; CS50 (mA) (CI) ([1]; dose 10 mg/kg i.p., 30 min before the test, listed as lacosamide, 10 mg/kg): above 25 mA; Anticonvulsant effect (%) (prolongation of latency time to seizures vs vehicle) ([5]; dose 30 mg/kg i.p., 30 min before pilocarpine): 12.8%; Latency to status epilepticus (s) ± SEM ([5]; dose 30 mg/kg i.p., 30 min before pilocarpine 400 mg/kg): 382.1 ± 22.86 s; Latency to status epilepticus (s) ± SEM ([5]; dose 40 mg/kg i.p., 30 min before pilocarpine 400 mg/kg): 507.7 ± 52.11 s; Anticonvulsant effect (%) (prolongation of latency time to seizures vs vehicle) ([5]; dose 40 mg/kg i.p., 30 min before pilocarpine, 40 mg/kg): 50% and 49.8%; antinociceptive activity in the hot plate test (in words) [7]: significantly prolonged the latency time
4 | O=C1NC(=O)C(c2ccccc2)(c2ccccc2)N1 [Phenytoin, reference compound] | – | – | – | – | – | – | – | – | – | – | – | – | – | – | – | – | – | % inhibition of control specific binding ([10]; 10 μM): 6.6%; % inhibition of control specific binding ([10]; 100 μM): 57.8%
5 | N-[{4-(3-methylphenyl)-piperazin-1-yl}-methyl]-3-methylpyrrolidine-2,5-dione [Compound 15] | 8.11 (7.12–9.24)*** mA | 52 | 66 | – | – | – | 406.0 ± 59.77 | – | – | 47.12 ± 6.14 | – | – | – | – | – | 18.5 | 71 | influence on locomotor activity (number of crossings, in words) ([3]; mouse, in vivo, ip, 30 mg/kg): significantly reduced the number of crossings
